The target of assay [1] is T1, human recombinant GCS expressed in insect cells (Homo sapiens, UniProt Q16739).
T1 construct: made in house; host or cells: insect cells
T1 sequence (Q16739 1-394): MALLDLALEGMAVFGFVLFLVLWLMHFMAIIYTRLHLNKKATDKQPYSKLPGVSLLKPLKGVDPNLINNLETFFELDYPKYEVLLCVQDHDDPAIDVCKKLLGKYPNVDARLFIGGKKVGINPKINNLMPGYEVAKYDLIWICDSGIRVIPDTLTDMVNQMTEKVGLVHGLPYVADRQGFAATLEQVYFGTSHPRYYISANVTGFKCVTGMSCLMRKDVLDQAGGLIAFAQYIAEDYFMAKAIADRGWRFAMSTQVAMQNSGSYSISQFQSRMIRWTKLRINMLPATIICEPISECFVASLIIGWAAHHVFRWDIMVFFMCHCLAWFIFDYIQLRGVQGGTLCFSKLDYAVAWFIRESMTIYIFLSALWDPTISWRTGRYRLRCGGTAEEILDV
The experiment in a line: Inhibition of GCS. Format: biochemical. On the procedure: The assay for inhibition of GCS was performed essentially as described in Platt et al., J. Biol. Chem., (1994), 269, 27108, the enzyme source being human recombinant GCS expressed in insect cells.

The target in assay [2] is T2, non-lysosomal-β-glucocerebrosidase (Homo sapiens, UniProt Q9HCG7).
T2 construct: whole cell extracts of MCF7 (a human breast carcinoma cell line) was used as the source of the enzyme; endogenous in cells; host or cells: MCF7 whole cell extract
T2 sequence (Q9HCG7 1-927): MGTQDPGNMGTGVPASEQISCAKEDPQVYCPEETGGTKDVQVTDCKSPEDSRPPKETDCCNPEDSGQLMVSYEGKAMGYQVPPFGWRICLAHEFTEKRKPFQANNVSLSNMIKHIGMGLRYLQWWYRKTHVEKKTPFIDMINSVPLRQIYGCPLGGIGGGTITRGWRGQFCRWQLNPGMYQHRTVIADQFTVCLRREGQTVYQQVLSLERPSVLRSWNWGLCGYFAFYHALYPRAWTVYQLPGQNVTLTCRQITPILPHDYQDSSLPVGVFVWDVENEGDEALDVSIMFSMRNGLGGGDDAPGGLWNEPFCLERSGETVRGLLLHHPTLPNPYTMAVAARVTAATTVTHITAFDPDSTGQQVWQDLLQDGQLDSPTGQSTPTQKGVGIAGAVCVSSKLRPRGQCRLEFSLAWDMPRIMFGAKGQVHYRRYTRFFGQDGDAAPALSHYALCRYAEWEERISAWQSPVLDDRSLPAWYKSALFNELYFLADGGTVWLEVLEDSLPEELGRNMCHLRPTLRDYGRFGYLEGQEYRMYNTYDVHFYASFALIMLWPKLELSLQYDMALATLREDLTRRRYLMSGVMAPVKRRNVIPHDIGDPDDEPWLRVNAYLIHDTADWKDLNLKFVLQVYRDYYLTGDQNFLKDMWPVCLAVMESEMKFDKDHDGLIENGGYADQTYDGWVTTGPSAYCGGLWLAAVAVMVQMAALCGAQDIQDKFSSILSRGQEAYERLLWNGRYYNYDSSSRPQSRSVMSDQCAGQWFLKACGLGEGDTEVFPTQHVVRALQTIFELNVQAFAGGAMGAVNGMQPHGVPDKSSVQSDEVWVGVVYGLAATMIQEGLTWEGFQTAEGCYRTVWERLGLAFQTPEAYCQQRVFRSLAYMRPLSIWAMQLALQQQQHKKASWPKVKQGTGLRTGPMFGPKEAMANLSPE
Description: Inhibition of non-lysosomal-β-glucocerebrosidase. The format is biochemical. Conditions: whole cell extracts of MCF7 as enzyme source; 5 mM 4-MU β-glucoside; pH 5.8.

In general, IC50 refers to the concentration that gives 50% inhibition. As to `OC[C@@H]1[C@H](O)[C@H](O)[C@@H](O)CN1Cc1ccc(OCc2ccccc2)cc1` [Example 1], the IC50 in assay [1] was 1.3 µM; in assay [2], 10 µM.

Values taken from patent publication US20080234324A1, “Piperidine Derivatives as Gcs Inhibitors” (priority 2004, published 2008).
